The text below walks through data of US20220259165A1, “S-OXIDES OF 2,3-DIARYL-2,3-DIHYDRO-4H-1,3-THIAZIN-4-ONES AND 2,3-DIARYL-1,3-THIAZEPAN-4-ONES AND METHODS FOR MAKING” (The Penn State Research Foundation, priority 2019, published 2022).

The melting point is the temperature, or range, at which the solid turns liquid.

As to `CC(=O)N[C@H]1C[S@+]([O-])[C@@H](c2ccccc2)N(c2ccccc2)C1=O` [Example 1b, N-[(1S,2S,5R)-1,4-dioxo-2,3-diphenyl-1λ^4,3-thiazinan-5-yl]acetamide], the melting point lay within 176 to 179 °C.
In turn, `O=C1c2ccccc2[S+]([O-])C(c2ccccc2)N1c1ccccc1` (centres unmarked) [Example 1c, 2,3-diphenyl-2,3-dihydro-4H-1,3-benzothiazin-4-one 1-oxide] had a melting point of 208 to 209 °C.
`O=C1c2cccnc2[S+]([O-])C(c2ccccc2)N1c1ccccc1` (centres unmarked) [Example 1d, 2,3-diphenyl-2,3-dihydro-4H-pyrido[3,2-e]-[1,3]thiazin-4-one 1-oxide] had a melting point of 177 to 179 °C.
Compound `O=C1CC2(CC2)C[S+]([O-])C(c2ccccc2)N1c1ccccc1` (centres unmarked) [Example 1e, 6,7-diphenyl-5λ^4-thia-7-azaspiro[2.6]nonane-5,8-dione] returned a melting point of 193 to 194 °C.
`O=C1CCS(=O)(=O)C(c2ccccc2)N1c1ccccc1` (centres unmarked) [Example 2a, 2,3-diphenyl-2,3,5,6-tetrahydro-4H-1,3-thiazin-4-one 1,1-dioxide] registered a melting point of 145 to 148 °C.
As for `CC(=O)N[C@H]1CS(=O)(=O)[C@@H](c2ccccc2)N(c2ccccc2)C1=O` [Example 2b, N-[(2S,5R)-1,1,4-trioxo-2,3-diphenyl-1λ^6,3-thiazinan-5-yl]acetamide], the figure is 170 to 194 °C (dec.); as for `O=C1c2ccccc2S(=O)(=O)C(c2ccccc2)N1c1ccccc1` (centres unmarked) [Example 2c, 2,3-diphenyl-2,3-dihydro-4H-1,3-benzothiazin-4-one 1,1-dioxide], 163 to 165 °C.
As for `O=C1CC2(CC2)CS(=O)(=O)C(c2ccccc2)N1c1ccccc1` (centres unmarked) [Example 2e, 6,7-diphenyl-5?^6-thia-7-azaspiro[2.6]nonane-5,5,8-trione], the melting point was 186.6 to 187.7 °C (dec.).
